The text below walks through data of BindingDB's records for doi:10.1016/j.bmc.2017.05.049 (Peking University, 2017).

Assay [1] is described as follows: Inhibition of trypsin-like activity of 20S proteasome in human HL60 cells using Z-LRRaminoluciferin as substrate pretreated for 2 hrs followed by substrate addition by […] assay.
Assay [2] in a line: Inhibition of PGPH-like activity of 20S proteasome in human HL60 cells using Z-nLPnLDaminoluciferin as substrate pretreated for 2 hrs followed by substrate addition by […] assay.

Turning to `CC(C)C[C@H](NC(=O)OCc1ccccc1)C(=O)N[C@@H](Cc1ccc2ccccc2c1)C(=O)N1CCC[C@H]1B(O)O`, the IC50 in assay [1] is 1660 nM; in assay [2], 1250 nM.
